From PubChem BioAssay (NCI)
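Dose response: 5 concentrations. Exposure: 48 h. Format: 96-well plates. Endpoint: linear interpolation; highest concentration if not reached. Definition used: TGI = concentration required for complete inhibition of growth.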

Columns and labels:
Assay in all cases: growth of human tumour cells (NCI), 48 h
SW-620 colon = system: SW-620 colon
SF-539 CNS = system: SF-539 CNS
NCI-H226 lung = system: NCI-H226 lung
TK-10 renal = system: TK-10 renal
DMS 114 small cell lung = system: DMS 114 small cell lung
786-0 renal = system: 786-0 renal
HL-60(TB) leukemia = system: HL-60(TB) leukemia
SF-295 CNS = system: SF-295 CNS
U251 CNS = system: U251 CNS
SF-268 CNS = system: SF-268 CNS
HOP-92 NSCLC = system: HOP-92 NSCLC
MALME-3M melanoma = system: MALME-3M melanoma
IGROV1 ovarian = system: IGROV1 ovarian
OVCAR-8 ovarian = system: OVCAR-8 ovarian
UACC-257 melanoma = system: UACC-257 melanoma
OVCAR-4 ovarian = system: OVCAR-4 ovarian
A498 renal = system: A498 renal
CAKI-1 renal = system: CAKI-1 renal
M14 melanoma = system: M14 melanoma
HOP-18 NSCLC = system: HOP-18 NSCLC
DLD-1 colon = system: DLD-1 colon
HCT-15 colon = system: HCT-15 colon
UO-31 renal = system: UO-31 renal
NCI-H460 lung = system: NCI-H460 lung
ACHN renal = system: ACHN renal
SN12C renal = system: SN12C renal
SK-MEL-2 melanoma = system: SK-MEL-2 melanoma
SNB-78 CNS = system: SNB-78 CNS
HOP-62 NSCLC = system: HOP-62 NSCLC
CCRF-CEM leukemia = system: CCRF-CEM leukemia
MOLT-4 leukemia = system: MOLT-4 leukemia
HT29 colon = system: HT29 colon
LXFL 529 NSCLC = system: LXFL 529 NSCLC
M19-MEL melanoma = system: M19-MEL melanoma
RPMI-8226 leukemia = system: RPMI-8226 leukemia
HCC-2998 colon = system: HCC-2998 colon
A549 NSCLC = system: A549 NSCLC
RXF 393 renal = system: RXF 393 renal
SR leukemia = system: SR leukemia
DMS 273 small cell lung = system: DMS 273 small cell lung
HCT-116 colon = system: HCT-116 colon
UACC-62 melanoma = system: UACC-62 melanoma
SK-MEL-5 melanoma = system: SK-MEL-5 melanoma
NCI-H522 lung = system: NCI-H522 lung
SNB-75 CNS = system: SNB-75 CNS
KM12 colon = system: KM12 colon
K-562 leukemia = system: K-562 leukemia
COLO 205 colon = system: COLO 205 colon
SK-OV-3 ovarian = system: SK-OV-3 ovarian
OVCAR-5 ovarian = system: OVCAR-5 ovarian
LOX IMVI melanoma = system: LOX IMVI melanoma
NCI-H23 lung = system: NCI-H23 lung
NCI/ADR-RES ovarian = system: NCI/ADR-RES ovarian
SK-MEL-28 melanoma = system: SK-MEL-28 melanoma
MCF7 breast = system: MCF7 breast
BT-549 breast = system: BT-549 breast
MDA-MB-231 breast = system: MDA-MB-231 breast
PC-3 prostate = system: PC-3 prostate
MDA-N = system: MDA-N
MDA-MB-435 = system: MDA-MB-435
EKVX NSCLC = system: EKVX NSCLC
SNB-19 CNS = system: SNB-19 CNS
XF 498 CNS = system: XF 498 CNS
T-47D breast = system: T-47D breast
KM20L2 colon = system: KM20L2 colon

## CC(=O)Nc1c(C)ccc2c1C(=O)c1ccccc1C2=O
SW-620 colon
  TGI: > 100 µM
SF-539 CNS
  TGI: > 100 µM
NCI-H226 lung
  TGI: > 100 µM
TK-10 renal
  TGI: > 100 µM
DMS 114 small cell lung
  TGI: > 100 µM
786-0 renal
  TGI: > 100 µM
HL-60(TB) leukemia
  TGI: > 100 µM
SF-295 CNS
  TGI: > 100 µM
U251 CNS
  TGI: > 100 µM
SF-268 CNS
  TGI: > 100 µM
HOP-92 NSCLC
  TGI: > 100 µM
MALME-3M melanoma
  TGI: > 100 µM
IGROV1 ovarian
  TGI: > 100 µM
OVCAR-8 ovarian
  TGI: > 100 µM
UACC-257 melanoma
  TGI: > 100 µM
OVCAR-4 ovarian
  TGI: > 100 µM
A498 renal
  TGI: > 100 µM
CAKI-1 renal
  TGI: > 100 µM
M14 melanoma
  TGI: > 100 µM
HOP-18 NSCLC
  TGI: > 100 µM
DLD-1 colon
  TGI: > 100 µM
HCT-15 colon
  TGI: > 100 µM
UO-31 renal
  TGI: > 100 µM
NCI-H460 lung
  TGI: > 100 µM
ACHN renal
  TGI: > 100 µM
SN12C renal
  TGI: > 100 µM
SK-MEL-2 melanoma
  TGI: > 100 µM
SNB-78 CNS
  TGI: > 100 µM
HOP-62 NSCLC
  TGI: > 100 µM
CCRF-CEM leukemia
  TGI: > 100 µM
MOLT-4 leukemia
  TGI: > 100 µM
HT29 colon
  TGI: > 100 µM
LXFL 529 NSCLC
  TGI: > 100 µM
M19-MEL melanoma
  TGI: > 100 µM
RPMI-8226 leukemia
  TGI: > 100 µM
HCC-2998 colon
  TGI: > 100 µM
A549 NSCLC
  TGI: > 100 µM
RXF 393 renal
  TGI: > 100 µM
SR leukemia
  TGI: > 100 µM
DMS 273 small cell lung
  TGI: > 100 µM
HCT-116 colon
  TGI: > 100 µM
UACC-62 melanoma
  TGI: > 100 µM
SK-MEL-5 melanoma
  TGI: > 100 µM
NCI-H522 lung
  TGI: > 100 µM
SNB-75 CNS
  TGI: > 100 µM
KM12 colon
  TGI: > 100 µM
K-562 leukemia
  TGI: > 100 µM
COLO 205 colon
  TGI: > 100 µM
SK-OV-3 ovarian
  TGI: > 100 µM
OVCAR-5 ovarian
  TGI: > 100 µM
LOX IMVI melanoma
  TGI: > 100 µM

## CC1=NN(C(=O)c2ccccc2O)C(=O)/C1=C/c1ccccc1O
SW-620 colon
  TGI: > 100 µM
NCI-H23 lung
  TGI: 20.9 µM
SF-539 CNS
  TGI: 2.45 µM
NCI-H226 lung
  TGI: 16.4 µM
TK-10 renal
  TGI: > 100 µM
DMS 114 small cell lung
  TGI: 8.86 µM
NCI/ADR-RES ovarian
  TGI: > 36.7 µM
786-0 renal
  TGI: 44.4 µM
SK-MEL-28 melanoma
  TGI: > 100 µM
HL-60(TB) leukemia
  TGI: 3.62 µM
MCF7 breast
  TGI: > 64.2 µM
SF-295 CNS
  TGI: > 100 µM
BT-549 breast
  TGI: 50 µM
U251 CNS
  TGI: > 100 µM
SF-268 CNS
  TGI: > 75.4 µM
MDA-MB-231 breast
  TGI: > 100 µM
HOP-92 NSCLC
  TGI: 28.5 µM
MALME-3M melanoma
  TGI: 74.4 µM
IGROV1 ovarian
  TGI: 3.63 µM
OVCAR-8 ovarian
  TGI: 64.4 µM
UACC-257 melanoma
  TGI: 30.5 µM
OVCAR-4 ovarian
  TGI: 68.3 µM
A498 renal
  TGI: 0.124 µM
CAKI-1 renal
  TGI: > 27.3 µM
M14 melanoma
  TGI: 48.4 µM
DLD-1 colon
  TGI: > 100 µM
HCT-15 colon
  TGI: 21.2 µM
UO-31 renal
  TGI: 1.56 µM
PC-3 prostate
  TGI: > 100 µM
NCI-H460 lung
  TGI: > 100 µM
MDA-N
  TGI: > 100 µM
ACHN renal
  TGI: 33.1 µM
SN12C renal
  TGI: 33.7 µM
SK-MEL-2 melanoma
  TGI: > 91.4 µM
HOP-62 NSCLC
  TGI: 39.4 µM
CCRF-CEM leukemia
  TGI: > 100 µM
MDA-MB-435
  TGI: > 100 µM
MOLT-4 leukemia
  TGI: 51 µM
EKVX NSCLC
  TGI: 41.6 µM
SNB-19 CNS
  TGI: > 100 µM
HT29 colon
  TGI: > 100 µM
LXFL 529 NSCLC
  TGI: > 100 µM
RPMI-8226 leukemia
  TGI: > 100 µM
XF 498 CNS
  TGI: > 100 µM
HCC-2998 colon
  TGI: 55.6 µM
A549 NSCLC
  TGI: > 100 µM
RXF 393 renal
  TGI: 0.924 µM
SR leukemia
  TGI: 65.4 µM
HCT-116 colon
  TGI: > 29.9 µM
T-47D breast
  TGI: 15.6 µM
UACC-62 melanoma
  TGI: 7.2 µM
SK-MEL-5 melanoma
  TGI: 14.2 µM
NCI-H522 lung
  TGI: 17.9 µM
SNB-75 CNS
  TGI: > 67.7 µM
KM20L2 colon
  TGI: > 100 µM
KM12 colon
  TGI: > 100 µM
K-562 leukemia
  TGI: > 100 µM
COLO 205 colon
  TGI: > 89.1 µM
OVCAR-5 ovarian
  TGI: > 93.8 µM
LOX IMVI melanoma
  TGI: 31.9 µM
